The values below come from patent US20050261319A1, “Novel 2-amino-4-quinazolinones and 2-amino-4-oxoquinazolones as LXR nuclear receptor binding compounds with partial agonistic properties” (priority 2002, published 2005).

SMILES strings stand for the structures.

The subject of assay [1] is THP-1 macrophages. Nature of the assay: Cholesterol efflux from differentiated THP-1 macrophages. Conditions: ApoA1, 10 uM, 24 h. Type of assay: cell-based. As for the experimental part:
Methods: Cultures of the monocyte-macrophage cell line and the hepatocytes HepG2 are obtained from the American Type tissue Culture Collection, Rockville, Md. and were grown in RPMI 1640 medium supplemented with 10% fetal bovine serum, 10 mM HEPES, 2 mM pyruvate, 50 uM (3-Mercaptoethanol (THP-1) and Minimum essential medium (Eagle) with 2 mM L-glutamine and Earle's BSS supplemented with 10% fetal bovine serum, 2 mM glutamin, 0.1 mM non-essential amino acids, 1 mM sodium pyruvate (HepG2), respectively, at 37° C. in 5% CO2. THP-1 cells are differentiated into macrophages by addition of 100 nM Phorbol 12-Myristate 13-Acetate (PMA; Sigma P8139) and PMA included in the medium of all subsequent experiments to maintain differentiation. For cholesterol efflux measurements and triglyceride analysis cells are seeded in 6 well plates at 1.8×10^6 cells (THP-1) and 1×10^6 cells (HepG2) per well, respectively. CHOLESTEROL EFFLUX THP-1 cells are seeded in 6 well plates at 1×10^6 cells per well in RPMI 1640 medium containing 10% FCS and 100 nM TPA for 72 h. After washing with PBS cells are incubated 24 h with fresh in RPMI 1640 medium containing 10% FCS and 100 nM TPA. […] Medium is collected, centrifuged to remove cell debris and assayed for cholesterol using a commercial fluorometric kit (Molecular Probes A-12216). The remaining cellular proteins are lysed with 0.3 NNaOH and protein content measured with the Biorad Bradford reagent. THP-1 (1×10^6 cells per dish) cells were seeded in 6 well dishes in 3 ml modified RPMI 1640 medium (ATTC, Cat. […] After incubation for 24 hours, total cholesterol was determined from cell supernatant in each of the wells using an enzymatic assay with fluorescence read-out for the determination of cholesterol (Amplex Red Cholesterol Assay Kit (A-12213). The fluorescence readout per mg of total protein content as determined from cells that were present in the respective well are shown in FIGS. 9 or 11 as an example.

In assay [2] the target is T1, Gal4DBD-LXRb (Homo sapiens, UniProt P55055).
T1 construct: expressed in transfected cells; host or cells: CHO
T1 sequence (P55055 222-460 limits assumed): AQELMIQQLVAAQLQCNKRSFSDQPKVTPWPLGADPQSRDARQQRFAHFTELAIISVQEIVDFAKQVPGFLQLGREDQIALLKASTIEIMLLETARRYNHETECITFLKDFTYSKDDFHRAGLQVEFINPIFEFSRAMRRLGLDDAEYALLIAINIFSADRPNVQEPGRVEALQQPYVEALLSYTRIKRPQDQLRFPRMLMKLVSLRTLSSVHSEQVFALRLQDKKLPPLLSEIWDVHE
Nature of the assay: pFR-luc reporter transactivation in CHO cells, Gal4DBD-LXRb. The settings on record: 16 h, 0.032 to 50 uM. Type of assay: cell-based. The protocol: (§1) CHO cells (1×10^5 cells 96 well plate) were co-transfected (Lipofectamine 2000 GIBCO) with pFR-luc (Stratagene) as a reporter gene construct and pCMV-AD derivatives containing the LXRa or LXRb ligand binding domains, which were cloned via the gateway system (GIBCO) described in Example 1, in order to express Gal4DBD-LXRa or Gal4DBD-LXRb fusion proteins.
(§2) Cells were grown in DMEM containing 10% FCS at 37° C. in 5% humidified CO2 for 16 h in presence of 0.05% DMSO vehicle or 0.032 to 50 uM LN0000006500 in vehicle (as indicated in FIG. 9). Luciferase activity was determined from aliquots of extracts prepared from cells following standard luciferase assay kits and protocols from Promega.

Assay [3] deals with HepG2 liver cells. In words: Triglyceride assay in HepG2 cells. It counts as cell-based. Conditions: 24 h, 25 pM. The protocol:
Methods: Cultures of the monocyte-macrophage cell line and the hepatocytes HepG2 are obtained from the American Type tissue Culture Collection, Rockville, Md. and were grown in RPMI 1640 medium supplemented with 10% fetal bovine serum, 10 mM HEPES, 2 mM pyruvate, 50 uM (3-Mercaptoethanol (THP-1) and Minimum essential medium (Eagle) with 2 mM L-glutamine and Earle's BSS supplemented with 10% fetal bovine serum, 2 mM glutamin, 0.1 mM non-essential amino acids, 1 mM sodium pyruvate (HepG2), respectively, at 37° C. in 5% CO2.
For cholesterol efflux measurements and triglyceride analysis cells are seeded in 6 well plates at 1.8×10^6 cells (THP-1) and 1×10^6 cells (HepG2) per well, respectively.
TRIGLYCERIDE ASSAY HepG2 cells are seeded in poly-L-Lysine coated 6 well plates at 1×10^6 cells per well in EMEM medium containing 10% FCS until they were appr. 60% confluent. Before treatment with LXR compounds growth medium is changed to medium containing 10% charcoal/dextran-stripped FCS for 12 h. Treatment is done for 24 h in medium containing 10% charcoal/dextran-stripped FCS. Cells are washed twice with ice-cold PBS/0.2% BSA and twice with cold PBS and all liquid carefully removed. Triglyceride are extracted with 1.5 ml hexane/isopropanol=3: 2 per well with gentle shaking for 2-3 h at RT according to Pan et al. (2002) JBC277, 4413-4421 and Goti et al. (1998) Biochem J, 332, 57-65. The extraction solution is collected, dried under vacuum and redissolved in isopropanol/1.5% triton. The remaining cellular proteins are lysed with 0.3 N NaOH and protein content measured with the Biorad Bradford reagent.
Triglyceride levels are measured as esterified glycerol using a commercial enzymatic colorimetric kit (Sigma 343-25P). In a preliminary assay it is checked by omitting the lipase enzyme that contribution of free glycerol is negligible.

The target in assay [4] is T2, Gal4DBD-LXRa (Homo sapiens, UniProt Q13133).
T2 construct: expressed in transfected cells; host or cells: CHO
T2 sequence (Q13133 209-447 limits assumed): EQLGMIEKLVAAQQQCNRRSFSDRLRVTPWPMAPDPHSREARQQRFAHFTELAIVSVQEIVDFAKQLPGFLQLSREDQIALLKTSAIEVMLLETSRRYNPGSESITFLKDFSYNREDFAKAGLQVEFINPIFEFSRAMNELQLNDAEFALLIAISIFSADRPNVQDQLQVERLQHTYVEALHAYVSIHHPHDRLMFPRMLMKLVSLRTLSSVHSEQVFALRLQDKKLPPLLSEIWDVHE
Nature of the assay: pFR-luc reporter transactivation in CHO cells, Gal4DBD-LXRa. It counts as cell-based. The settings on record: 16 h, 0.032 to 50 uM. The protocol: as §1, §2

Assay [5] concerns the target T3, human LXRalpha LBD (Homo sapiens, UniProt Q13133, A196R).
T3 construct: from amino acids 155 of hLXRalpha to 447; made in house; host or cells: SF9 insect cells (baculovirus) for LXRalpha LBD; E. coli BL21 for Tif2 fragment
T3 sequence (Q13133 155-447 A196R): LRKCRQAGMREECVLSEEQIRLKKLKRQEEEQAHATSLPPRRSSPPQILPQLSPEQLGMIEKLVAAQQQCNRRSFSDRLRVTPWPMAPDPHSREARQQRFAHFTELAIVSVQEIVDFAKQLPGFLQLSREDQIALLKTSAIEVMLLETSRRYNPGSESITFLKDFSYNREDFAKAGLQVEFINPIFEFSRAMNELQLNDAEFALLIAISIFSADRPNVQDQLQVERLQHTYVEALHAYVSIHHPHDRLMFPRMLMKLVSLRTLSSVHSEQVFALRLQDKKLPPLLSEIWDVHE
T3 sequence (Q15596 548-878 partner limits assumed): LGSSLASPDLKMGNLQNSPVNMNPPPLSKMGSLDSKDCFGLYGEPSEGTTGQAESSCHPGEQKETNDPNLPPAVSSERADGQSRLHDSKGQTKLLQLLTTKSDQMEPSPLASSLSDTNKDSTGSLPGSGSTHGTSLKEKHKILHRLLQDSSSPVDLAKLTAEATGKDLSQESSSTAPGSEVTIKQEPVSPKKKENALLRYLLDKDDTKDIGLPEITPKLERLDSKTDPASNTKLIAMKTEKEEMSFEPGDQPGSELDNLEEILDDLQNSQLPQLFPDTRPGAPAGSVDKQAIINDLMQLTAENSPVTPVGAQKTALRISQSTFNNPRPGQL
In words: In vitro screening for LXR binding to coactivator Tif2 (LANCE TR-FRET). It counts as biochemical. The source says: For screening purposes a GST and 6× His fusion of the LBD (from amino acids 155 of hLXRalpha to 447) of human LXRalpha was constructed by first cloning a Gateway cassette (Invitrogen) in frame into the Sma I site of the pAGGHLT Polylinker (Pharmingen). Then a PCR fragment specifically amplified from human liver cDNA was cloned into the resulting pACGHLT-GW following the manufacturers instructions for Gateway cloning (Invitrogen) to yield pACGHLT-GW-hLXRalphaLBD.
100% sequence integrity of all recombinant products was verified by sequencing. Recombinant Baculovirus was constructed from pACGHLT-GW-hLXRalphaLBD using the Pharmingen Baculovirus Expression vector system according to instructions of the manufacturer. Monolayer cultures of SF9 cells were infected by the virus as recommended by Pharmingen or 200 ml cultures of 1×10^6 cells/ml grown in 2 liter Erlenmeyer flasks on an orbital shaker at 30 rpm were infected by 10 ml of same virus stock. In both cases cells were harvested 3 days after infection. All cell growth was performed in Gibco SF900 II with Glutamine (Invitrogen) medium without serum supplementation at 28° C. Since SF9 cells contain significant amounts of endogenous 30 GST, purification was performed via His and not via GST affinity chromatography.
To this end instructions of Pharmingen for purification of recombinant His tagged proteins from SF9 cells were followed with the following modifications: All detergents were omitted from the buffers and cells were lysed on ice by 5 subsequent sonication pulses using a sonicator needle at maximum power.
All eluates were dialyzed against 20 mM Tris/HCl pH 6.8, 300 mM KCl; 5 mM MgCl2;1 mM DTT; 0.2 mM PMSF; 10% Glycerol. A typical dialyzed eluate fraction contained the fusion protein at a purity of more than 80%. Total protein concentration was 0.1-0.3 mg/ml.
For E. coli expression of a NR coactivator, pDest17-hTif2BD expressing an NR interaction domain from amino acids 548-878 of human Tif2 (Acc. No: XM011633 Ref Seq) tagged by 6 N-terminal His residues was constructed. Therefore, a PCR fragment specifically amplified from human liver cDNA was subcloned into pDest 17 (Invitrogen) following the manufacturers instructions for Gateway cloning (Invitrogen). Primers used for Amplification were: […]
For E. coli expression plasmid DNA was transformed into chemically competent E. coli BL21 (Invitrogen, USA) and cells were grown to an OD600 of 0.4-0.7 before expression was induced by addition of 0.5 mM IPTG according instructions of the manufacturer (Invitrogen). After induction for 8 hours at 30° C. cells were harvested by centrifugation for 10 minutes at 5000×g. Fusion proteins were affinity purified using Ni—NTA Agarose (QIAGEN) according to the instructions of the manufacturer.
Recombinant Tif2 construct was dialyzed against 20 mM Tris/HCL pH 7.9; 60 mM KCl; 5 mM MgCl2; 1 mM DTT, 0.2 mM PMSF; 10% glycerol. A typical dialyzed eluate fraction contained the fusion protein at a purity of more than 80%. Total protein concentration was 0.1-0.3 mg/ml.
The TIF2 fragment was subsequently biotinylated by addition of 5-40 ul/ml Tif2 fraction of a Biotinamidocaproate N-Hydroxysuccinimide-ester (Sigma) solution (20 mg/ml in DMSO). Overhead rotating samples were incubated for 2 hours at room temperature. Unincorporated label was then separated using G25 Gel filtration chromatography (Pharmacia Biotech, Sweden). Protein containing fractions from the column were pooled and tested for activity in the assay as described below.
For screening of compound libraries as provided for by the methods shown below in the examples for substances which influence the LXR/Tif 2 interaction, the PerkinElmer LANCE technology is applied. This method relies on the binding dependent energy transfer from a donor to an acceptor fluorophore attached to the binding partners of interest. […]
For orientation: In TR-FRET formats the signal depends on donor and acceptor labels being close together.

For the molecule `O=S(=O)(c1ccccc1)N(CC(F)(F)F)c1ccc(C(O)(C(F)(F)F)C(F)(F)F)cc1` [T0901317, reference compound], in assay [1], the cholesterol export entry is on record as “marked increase”. For the same molecule, the “transactivation of the pFR-luc reporter gene via Gal4 LBD-fusion construct derived from LXRb” value in assay [2] is recorded as “can selectively enhance transcription”. Moreover, the triglyceride mass entry in assay [3] was “marked increase”. The “transactivation of the pFR-luc reporter gene via Gal4 LBD-fusion construct derived from LXRa” value in assay [4] is “can selectively enhance transcription”.

As to `C=CCn1c(N2CC3(C)CC2CC(C)(C)C3)nc2ccccc2c1=O` (stereo not drawn) [formula (4)], in assay [5] (FRET assay, read-out: EC50 at LXR (half-maximal effective concentration)), the EC50 worked out at 500 nM.

With `CC(C)n1c(N2CC3(C)CC2CC(C)(C)C3)nc2ccc(Br)cc2c1=O` (stereo not drawn) [formula (6)], in assay [5], the “active as agonist / partial agonist of the LXR human nuclear receptor” value was “active as agonist”.
